From patent US6084081A, “Lewis X derivatives” (Daikin Industries, Ltd., priority 1996, dated 2000)

Assays:
P-selectin = target: T1, P-selectin (Homo sapiens, UniProt P16109); settings: relative to sugar chain (3); cited from earlier work
T1 sequence (P16109 42-830): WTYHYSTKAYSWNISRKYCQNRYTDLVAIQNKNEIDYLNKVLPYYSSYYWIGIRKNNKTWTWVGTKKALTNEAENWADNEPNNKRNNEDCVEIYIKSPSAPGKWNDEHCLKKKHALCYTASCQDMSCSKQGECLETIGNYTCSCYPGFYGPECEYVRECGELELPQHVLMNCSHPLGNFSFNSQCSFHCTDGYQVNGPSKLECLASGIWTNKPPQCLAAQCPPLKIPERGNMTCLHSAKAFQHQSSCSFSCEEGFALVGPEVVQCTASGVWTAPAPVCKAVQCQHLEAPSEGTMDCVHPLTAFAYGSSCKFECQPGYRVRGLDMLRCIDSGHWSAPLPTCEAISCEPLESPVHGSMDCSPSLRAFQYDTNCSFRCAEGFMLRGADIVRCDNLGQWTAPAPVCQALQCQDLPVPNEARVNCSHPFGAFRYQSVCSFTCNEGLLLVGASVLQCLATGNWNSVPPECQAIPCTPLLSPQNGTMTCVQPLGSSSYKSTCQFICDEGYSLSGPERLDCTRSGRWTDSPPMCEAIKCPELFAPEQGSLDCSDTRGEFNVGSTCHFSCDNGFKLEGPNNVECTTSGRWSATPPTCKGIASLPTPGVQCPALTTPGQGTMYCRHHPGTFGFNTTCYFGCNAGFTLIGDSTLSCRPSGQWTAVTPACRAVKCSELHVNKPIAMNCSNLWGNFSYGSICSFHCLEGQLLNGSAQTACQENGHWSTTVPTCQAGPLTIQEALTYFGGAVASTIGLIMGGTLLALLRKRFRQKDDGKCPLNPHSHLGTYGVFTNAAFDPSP

α-fucosidase = target: T2, α-fucosidase (Bos taurus, UniProt Q2KIM0); experiment: Metabolic stability test: substrate decomposition reaction by α-fucosidase (remaining substrate by TLC); assay type: in vitro ADME
T2 construct: purchased Wako Pure Chemical Industries, Ltd
T2 sequence (Q2KIM0 23-468): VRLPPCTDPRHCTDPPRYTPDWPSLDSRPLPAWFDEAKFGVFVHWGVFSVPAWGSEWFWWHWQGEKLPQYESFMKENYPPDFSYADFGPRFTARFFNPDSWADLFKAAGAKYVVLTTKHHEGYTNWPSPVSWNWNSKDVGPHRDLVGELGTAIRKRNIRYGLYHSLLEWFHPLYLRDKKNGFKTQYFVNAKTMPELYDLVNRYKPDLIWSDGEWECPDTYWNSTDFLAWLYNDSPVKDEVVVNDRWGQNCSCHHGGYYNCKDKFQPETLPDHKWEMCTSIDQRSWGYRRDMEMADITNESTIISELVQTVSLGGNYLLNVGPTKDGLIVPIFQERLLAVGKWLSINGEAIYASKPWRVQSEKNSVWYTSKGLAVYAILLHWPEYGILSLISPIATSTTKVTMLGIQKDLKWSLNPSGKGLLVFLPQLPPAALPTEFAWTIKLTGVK
Description: The TLC plate was developed until the reaction solution front moved 2 cm (developing solvent; n-butanol:acetic acid:water=8:5:4). After immersion in phosphomolybdic acid.phosphoric acid.sulfonic acid mixed aqueous solution, the plate was heated to develop colors and the amount of the remaining substrate was measured.

[1] = tested on: acute pulmonary inflammation induced using a cobra venom factor; settings: rats, Mulligan et al., Nature 364, 149 (1993); cited from earlier work

1-deoxy sialyl Lewis X [sugar chain (4)]
inhibitory activity against P-selectin, times as potent as sugar chain (3) (P-selectin): about 20 times

CCCCCCCCCCCCCC=CC(O)C(COC1OC(CO)C(OC2OC(CO)C(O)C(OC3OC(CF)C(OC4OC(CO)C(O)C(OC5(C(=O)O)CC(O)C(NC(C)=O)C(C(O)C(O)CO)O5)C4O)C(OC4OC(C)C(O)C(O)C4O)C3NC(C)=O)C2O)C(O)C1O)NC(=O)CCCCCCCCCCCCCCCCC [Compound 24, O-(5-Acetamide-3,5-dideoxy-D-glycero-α-D-galacto-2-nonulopyranosylonic acid)-(2→3)-O-β-D-glucopyranosyl-(1→4)-O-[α-L-fucopyranosyl-(1→3)]-O-(2-acetamide-2,6-dideoxy-6-fluoro-β-D-galactopyranosyl)-(1→3)-O-β-D-galactopyranosyl)-(1→4)-β-D-glucopyranosyl-(1→1)(2S, 3R, 4E)-2-octadecaneamide-4-octadecene-1,3-diol]
stability against decomposition by α-fucosidase (in words) (α-fucosidase; in the presence of α-fucosidase): more strongly resists the decomposition by α-fucosidase than a natural Ganglioside | Remaining Syalyl Lewis X (%) (α-fucosidase; α-fucosidase, time 0 min): 100%

sialyl Lewis X sugar chain [sialyl Lewis X sugar chain (3)]
effect on acute pulmonary inflammation (in words) [1]: ameliorates acute pulmonary inflammation
